Data as given in patent US20050159481A1, “Medicinal composition for improving angiotension-regulating function of blood vessel endothelium” (CHUGAI SEIYAKU KABUSHIKI KAISHA, priority 2002, published 2005).

System: rat mesenteric artery sections damaged by oxidized LDL
Assay: Vascular endothelium-dependent relaxation response to acetylcholine in rat vessel cross-sections damaged by oxidized LDL
Format: cell-based
Conditions: for ACh concentration at which the relaxation degree of 50% was achieved: 30 min perfusion, then oxidized LDL 100 μg/mL for 60 min, sections contracted with 5 μM phenylephrine
Procedure: The ability of a compound of the present invention to ameliorate the vascular tone-regulating function of vascular endothelium was evaluated by assaying vascular endothelium-dependent relaxation response to acetylcholine in the presence of a compound of the present invention using cross-section samples of rat vessels damaged by oxidized low-density lipoprotein (oxidized LDL).
Oxidized LDL is a substance derived from an endogenous low-density lipoprotein (LDL) via a exposure to a oxidative stress, and has been reported to be involved in the mechanism by which vascular endothelial cells are damaged (Tanner F C, Noll G, Boulanger C M, Luscher T F, Oxidized low density lipoproteins inhibit relaxations of porcine coronary arteries. Role of scavenger receptor and endothelium-derived nitric oxide. Circulation. 1991, 83:2012-20). The oxidized LDL used in this test was prepared by incubating rabbit LDL suspended at 200 μg/mL in phosphate buffered physiological saline (PBS) prepared by the method of Havel et al. (Havel R. J. et al., J. Clin. Invest., 34, 1345 (1955)) with 5 μM CuSO4 at 37° C. for 24 hours.
First, the mesenteric artery was collected from a rat euthanized by carbon dioxide inhalation into Krebs buffer (containing 118.0 mM NaCl, 4.7 mM KCl, 25.0 mM NaCO3, […] CaCl, 1.5 mM MgSO4 and 10 mM glucose), and the artery was cut into 2 mm wide annular cross sections. Then, the sections were suspended in a Magnus bath where they were equilibrated under a tension of 3 mN for 60 minutes. After equilibration, the sections were contracted with a 5 μM phenylephrine solution in Krebs buffer.
After confirming that a stable contraction was achieved, the perfusion solution was replaced with Krebs buffer containing 20 μM each of test compounds. The test compounds were the compound of the present invention, 4,6-di-t-butyl-5-hydroxy-2,2-di-n-pentyl-2,3-dihydrobenzofuran, and comparative compounds, probucol and α-tocopherol. Probucol is a compound reported to ameliorate the vascular tone-regulating function of vascular endothelium by preventing the decrease of the EDRF-secreting ability of vascular endothelial cells. α-tocopherol is a fat-soluble endogenous antioxidant known to inhibit the oxidation of LDL.
After perfusion for 30 minutes, oxidized LDL was added to a concentration of 100 μg/mL. After equilibration in the perfusion solution containing oxidized LDL for 60 minutes, acetylcholine (ACh) was cumulatively added at concentrations from 1×10^−10 M to 1×10^−5 M. At equally spaced ACh concentrations, the length of each section was measured to calculate the degree of relaxation (%) by dividing the difference between the lengths of the section before and after relaxation by the length before relaxation. This relaxation is a phenomenon resulting from the acetylcholine-induced secretion of EDRF from vascular endothelial cells.
In addition to the experiment described above, a similar experiment was performed except that the perfusion in Krebs buffer containing test compounds and the equilibration with oxidized LDL were omitted (control experiment) or except that the perfusion in Krebs buffer containing test compounds was omitted but the equilibration with oxidized LDL was included (oxidized LDL experiment).
The procedure of test example 1 was followed except that the concentration of the test compound was increased from 20 μM to 50 μM.

[1] = 20 μM test compound, compared with the oxidized LDL experiment, FIG. 1

Q: How did the “ACh concentration at which the relaxation degree of 50% was achieved” value (from here on “ACh concentration … of 50% was achieved”) (20 μM test compound, FIG. 1) turn out when `CCCCCC1(CCCCC)Cc2c(cc(C(C)(C)C)c(O)c2C(C)(C)C)O1` [compound of the present invention, 4,6-di-t-butyl-5-hydroxy-2,2-di-n-pentyl-2,3-dihydrobenzofuran] was run?
A: 126 nM

Q: What about the “Ameliorating effect on the vascular tone-regulating function of vascular endothelium damaged by oxidized LDL” value (from here on “Ameliorating effect”) [1] of the same compound?
A: ameliorated the vascular tone-regulating function of vascular endothelium

Q: And the “Ameliorating effect” value (50 μM test compound, compared with the control, FIG. 2)?
A: adverse influence of oxidized LDL-induced damages to vascular endothelial cells on the vascular tone-regulating function was completely removed

Q: For `CC(C)(Sc1cc(C(C)(C)C)c(O)c(C(C)(C)C)c1)Sc1cc(C(C)(C)C)c(O)c(C(C)(C)C)c1` [probucol], which “ACh concentration … of 50% was achieved” value (20 μM test compound, FIG. 1) is on record?
A: 121 nM

Q: Which “ACh concentration … of 50% was achieved” value (20 μM test compound, FIG. 1) does the source give for `Cc1c(C)c2c(c(C)c1O)CC[C@@](C)(CCC[C@H](C)CCC[C@H](C)CCCC(C)C)O2` [α-tocopherol] here?
A: 261 nM

Q: And the “Ameliorating effect” value [1]?
A: does not ameliorate the vascular tone-regulating function of vascular endothelium
